Data published in US7893252B2, “Selectively depolymerized galactomannan polysaccharide” (priority 2003, dated 2011).

How the values were obtained:
[1] = Biodistribution of 3H-galactomannan in tumor-bearing and non-tumor bearing mice (Example 6); format: in vivo
Protocol: The biodistribution of 3H-galactomannan was studied in tumor-bearing and non-tumor bearing mice. […] 3H-galactomannan elimination from plasma, kidneys, lungs and tumor in the various groups was rapid, an average of approximately 50% of the one-hour radioactivity was detected at six hours except in tumor-bearing mice, where the radioactivity in tumor samples from mice treated with 6 or 60 mg/kg of 3H-galactomannan with or without 5-FU averaged approximately 72% remaining after six hours. Elimination of 3H-galactomannan from the liver was more gradual than in other tissues, and on average, more than 50% of the radioactivity detected at one hour after injection was still present at 24 hours.
Male NCr-nu athymic nude mice (Charles Rivers Laboratories, Raleigh, N.C.) were acclimated and housed as described above. The first set of animals (a total of 18 mice) were non-tumored mice. The second set of 18 mice were tumored as follows. […]
Tritiation of GM from G. triacanthos was performed as follows. […] Total yield of the labeled GM was 3.8 mCi, specific radioactivity was 300 μCi/mg.
All 36 mice, divided into 18 groups, were given a single intravenous injection of cold or tritiated GM (either 6 or 60 mg/kg) or of a combination of GM (60 mg/kg, cold or tritiated) and 5-FU (114 mg/kg) on the same day. Non-labeled GM was formulated in saline, and tritiated GM was added to the solution so that each animal received 10 μCi of radioactivity. […] All dosing solutions (100 μL each) were counted in duplicate. […]
After weighing, livers were dissolved in 10 mL of Soluene 350 (Packard Instruments, Downers Grove, Ill.) and incubated first for 4 hrs at 50° C., and at room temperature, until tissues were solubilized. One millilter of the resulting solution was counted in a scintillation counter as a single sample. Based on tissue weight and the sample volume, the number of μCi of tritiated GM per gram of tissue was calculated.
Kidneys were treated in the same manner, but dissolved in 2 mL of Soluene. […] Plasma samples (50 μL each) were placed direct into Safety Solve and counted as a single sample. […]

dogs = experiment: Acute toxicology, single IV injection in dogs; format: in vivo; conditions: 5-FU 28.5 mg/kg, galactomannan 15 mg/kg, combination 28.5/15 mg/kg
Protocol: (§1) Acute toxicology studies of the galactomannan of the present invention were performed in mice, rats and dogs and subchronic toxicology studies were performed in rats and dogs. The following is a summary of the findings of these studies:
The surviving dogs remained clinically normal and had no treatment-related changes in body weight, feed consumption, ECG tracings, clinical pathology or gross tissue changes during the 21-day study period.

[2] = system: human colon tumor COLO 205; experiment: Efficacy study in COLO 205 human colon tumor xenografts, q4d×3 (Example 3); conditions: i.v. q4d×3, 5-FU 75 mg/kg/dose, GM 120 mg/kg/dose
Protocol: The both studies were conducted as follows.
5-FU alone was administered i.v. on the same q4d×3 treatment schedule at doses of 75 mg/kg/dose (225 mg/m2/dose). 5-FU was formulated in saline fresh on each day of treatment at a concentration of 3.75 mg/mL, at pH 9.2. […] Both individual compounds and their mixture were administered according to exact body weight with injection volume being 0.2 mL/10 g body weight.
There were a total of four groups of 10 animals each, s.c.-implanted with COLO 205 human colon tumor xenografts.

rats = experiment: Acute toxicology, single IV dose in rats; format: in vivo
Protocol: as §1
In rats (n=5/sex/group), single IV doses of 140 mg/kg (840 mg/m2) 5-FU, 72 mg/kg (432 mg/m2) galactomannan or 140/72 mg/kg of the combination produced no deaths in any of the groups.
Toxic changes in body weight, feed consumption, and hematology were less severe in the rats injected with the combination, versus those injected with 5-FU alone.

**Q.** For “(((1,4)-linked β-D-mannopyranose)17-((1,6)-linked-β-D-galactopyranose)10)12) [GM]”, which “increase of the amount of bound galactomannan for the 10-times higher dose” value ([1]; 60 mg/kg versus 6 mg/kg) is on record?
**A.** The value was 10 fold.

**Q.** And the saturation of binding ([1]; 6 to 60 mg/kg (18 to 180 mg/m2))?
**A.** Its saturation of binding is “did not reach saturation”.

**Q.** What about the “binding to liver, kidney, lung, tumor, and plasma” value ([1]; single i.v. injection, 6 or 60 mg/kg) of the same substance?
**A.** Its value is “freely binds”.

**Q.** What about the death (dogs) of the same substance?
**A.** The death was 0/2.

**Q.** And the mean survival time [2]?
**A.** The mean survival time was 19.2 days.

**Q.** What about the “median to quadrupling of tumor volume” value [2] of the same substance?
**A.** The value was 15.5 days.

**Q.** What about the “median tumor volume after 56 days of the study” value [2] of the same substance?
**A.** Its value is 1813 mm3.

**Q.** And the tolerability [2]?
**A.** The tolerability was “well tolerated”.

**Q.** And the “tumor regression after 56 days of the study” value [2]?
**A.** Its value is “no tumor regression”.

**Q.** What about the treatment-related deaths ([2]; 10 mice per group, within two weeks) of the same substance?
**A.** The treatment-related deaths was “No deaths”.

**Q.** What about the deaths (rats; 5-FU 140 mg/kg, galactomannan 72 mg/kg, combination 140/72 mg/kg, n=5/sex/group) of the same substance?
**A.** Its deaths is “no deaths”.

**Q.** What about the untoward effects (rats; galactomannan 72 mg/kg (432 mg/m2) alone) of the same substance?
**A.** The untoward effects was “no significant untoward effects”.
